These are literature values, as cited in patent US20100075916A1, “SUBSTITUTED QUINAZOLINE INHIBITORS OF GROWTH FACTOR RECEPTOR TYROSINE KINASES” (AUSPEX PHARMACEUTICALS, INC., priority 2008, published 2010).

The conditions of data set [1]: vandetanib administration.
The conditions of data set [2]: humans.

Regarding `COc1cc2c(Nc3ccc(Br)cc3F)ncnc2cc1OCC1CCN(C)CC1` [Vandetanib, N-(4-bromo-2-fluoro-phenyl)-6-methoxy-7-[(1-methyl-4-piperidyl)methoxy]quinazolin-4-amine], the common side effects result in data set [1] was “rash, diarrhea, QTc prolongation, hypertension, and neutropenia”. Besides, in data set [2], the elimination halflife entry is “approximately 120 hours” and the volume of distribution result is recorded as “large volume of distribution”. Further, the “lag time before the drug is detectable in plasma” value in data set [2] (after oral administration) was 0.801 h. In data set [2] (oral administration), the “Ka (absorption)” value was 0.476 h⁻¹.
